# Legend:
# [1] = topical application; cited from earlier work
# [2] = Permeation rate of morphine base through excised guinea pig skin with added LOVASTATIN; details: LOVASTATIN 2%-wt. added; after 24 h; released in 0.9% salt solution, T=37° C., n=3
smiles,measurement,setting,value
CC[C@H](C)C(=O)O[C@H]1C[C@@H](C)C=C2C=C[C@H](C)[C@H](CC[C@@H]3C[C@@H](O)CC(=O)O3)[C@H]21 [LOVASTATIN],DNA-synthesis in the epidermis,[1],increase
same,cholesterol level in the skin,[1],decrease
same,transepidermal loss of water,[1],increase
same,permeation rate of morphine base,[2],double

# Source: patent publication US6379696B1, “Therapeutic preparation for the transdermal administration of active substances” (priority 1995, dated 2002)
